Columns and labels:
Conditions in all cases: Compound concentration 1.0 uM
[1] = biological target: Tyrosine-protein kinase ABL2 (Homo sapiens) (UniProt P42684)
[2] = biological target: CDK12/Cyclin K (Homo sapiens) (UniProt O75909+Q9NYV4)
[3] = biological target: Casein kinase I isoform gamma-3 (Homo sapiens) (UniProt Q9Y6M4)
[4] = biological target: Casein kinase II subunit alpha (Homo sapiens) (UniProt P68400)
[5] = biological target: Proto-oncogene tyrosine-protein kinase Src (Homo sapiens) (UniProt P12931)
[6] = biological target: T1, Serine/threonine-protein kinase DCLK3 (Homo sapiens) (UniProt Q9C098)
T1 sequence (whole entry): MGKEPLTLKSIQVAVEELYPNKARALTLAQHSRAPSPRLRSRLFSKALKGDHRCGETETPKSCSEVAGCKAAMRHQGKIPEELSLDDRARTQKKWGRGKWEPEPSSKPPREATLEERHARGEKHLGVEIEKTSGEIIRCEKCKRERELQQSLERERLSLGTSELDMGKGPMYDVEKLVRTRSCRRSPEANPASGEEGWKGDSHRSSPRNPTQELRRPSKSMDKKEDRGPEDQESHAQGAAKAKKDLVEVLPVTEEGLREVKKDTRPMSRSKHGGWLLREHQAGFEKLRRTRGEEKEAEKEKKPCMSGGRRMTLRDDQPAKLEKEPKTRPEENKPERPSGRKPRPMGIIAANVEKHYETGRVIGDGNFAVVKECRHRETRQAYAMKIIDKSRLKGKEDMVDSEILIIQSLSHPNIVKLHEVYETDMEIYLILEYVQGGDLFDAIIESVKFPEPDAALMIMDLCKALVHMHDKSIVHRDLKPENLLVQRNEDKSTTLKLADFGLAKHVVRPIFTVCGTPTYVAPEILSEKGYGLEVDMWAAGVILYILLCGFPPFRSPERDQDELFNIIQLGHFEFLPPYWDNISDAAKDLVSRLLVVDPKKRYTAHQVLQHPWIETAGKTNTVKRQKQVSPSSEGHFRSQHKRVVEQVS

[7] = biological target: Fibroblast growth factor receptor 1 (Homo sapiens) (UniProt P11362)
[8] = biological target: Serine/threonine-protein kinase/endoribonuclease IRE1 (Homo sapiens) (UniProt O75460)
[9] = biological target: LIM domain kinase 1 (Homo sapiens) (UniProt P53667)
[10] = biological target: T2, Serine/threonine-protein kinase Nek9 (Homo sapiens) (UniProt Q8TD19)
T2 sequence (whole entry): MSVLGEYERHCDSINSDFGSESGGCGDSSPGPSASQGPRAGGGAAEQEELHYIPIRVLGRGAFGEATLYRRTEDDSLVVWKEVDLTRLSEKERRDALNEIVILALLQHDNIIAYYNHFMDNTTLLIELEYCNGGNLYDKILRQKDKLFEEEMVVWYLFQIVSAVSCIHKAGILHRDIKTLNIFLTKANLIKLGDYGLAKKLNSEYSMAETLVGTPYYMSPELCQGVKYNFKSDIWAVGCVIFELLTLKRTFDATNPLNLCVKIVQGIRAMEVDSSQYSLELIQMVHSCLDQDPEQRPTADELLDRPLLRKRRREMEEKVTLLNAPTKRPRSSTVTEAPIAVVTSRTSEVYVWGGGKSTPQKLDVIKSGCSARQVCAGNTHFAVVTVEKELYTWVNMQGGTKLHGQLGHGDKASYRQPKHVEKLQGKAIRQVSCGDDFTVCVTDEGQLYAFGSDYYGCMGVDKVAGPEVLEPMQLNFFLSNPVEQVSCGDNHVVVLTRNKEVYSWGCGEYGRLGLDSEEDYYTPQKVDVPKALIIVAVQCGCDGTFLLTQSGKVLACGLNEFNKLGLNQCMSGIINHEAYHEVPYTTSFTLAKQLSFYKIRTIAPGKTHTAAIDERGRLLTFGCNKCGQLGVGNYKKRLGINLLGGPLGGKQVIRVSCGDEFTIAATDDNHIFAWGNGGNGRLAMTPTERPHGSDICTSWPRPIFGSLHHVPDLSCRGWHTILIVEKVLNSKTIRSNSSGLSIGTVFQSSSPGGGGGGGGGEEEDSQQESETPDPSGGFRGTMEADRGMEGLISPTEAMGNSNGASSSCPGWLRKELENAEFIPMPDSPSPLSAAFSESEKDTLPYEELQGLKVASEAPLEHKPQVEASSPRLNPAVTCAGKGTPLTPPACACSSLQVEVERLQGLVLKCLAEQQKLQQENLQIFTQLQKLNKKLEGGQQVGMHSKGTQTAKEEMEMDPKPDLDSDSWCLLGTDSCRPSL

[11] = biological target: TRAF2 and NCK-interacting protein kinase (Homo sapiens) (UniProt Q9UKE5)
[12] = biological target: Testis-specific serine/threonine-protein kinase 4 (Homo sapiens) (UniProt Q6SA08)
[13] = biological target: Phosphatidylinositol 4-phosphate 5-kinase type-1 alpha (Homo sapiens) (UniProt Q99755)

Measured: % residual kinase activity

Sequence of Proto-oncogene tyrosine-protein kinase Src (Homo sapiens) (P12931 2-536 limits assumed): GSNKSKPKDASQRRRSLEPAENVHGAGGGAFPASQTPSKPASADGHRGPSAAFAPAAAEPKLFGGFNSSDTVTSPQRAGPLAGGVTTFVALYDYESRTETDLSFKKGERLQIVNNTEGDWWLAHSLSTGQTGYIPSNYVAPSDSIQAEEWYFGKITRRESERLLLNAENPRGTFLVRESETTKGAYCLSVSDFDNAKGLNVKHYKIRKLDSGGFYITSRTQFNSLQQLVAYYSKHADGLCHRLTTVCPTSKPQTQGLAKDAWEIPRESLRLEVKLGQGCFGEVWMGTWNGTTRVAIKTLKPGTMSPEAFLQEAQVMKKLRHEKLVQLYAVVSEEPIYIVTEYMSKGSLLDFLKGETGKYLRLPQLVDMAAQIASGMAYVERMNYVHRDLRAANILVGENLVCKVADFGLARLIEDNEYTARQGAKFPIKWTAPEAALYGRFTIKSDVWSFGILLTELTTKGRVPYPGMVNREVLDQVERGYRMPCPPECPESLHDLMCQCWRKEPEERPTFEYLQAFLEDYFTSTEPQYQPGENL
Sequence of Testis-specific serine/threonine-protein kinase 4 (Homo sapiens) (Q6SA08 whole entry): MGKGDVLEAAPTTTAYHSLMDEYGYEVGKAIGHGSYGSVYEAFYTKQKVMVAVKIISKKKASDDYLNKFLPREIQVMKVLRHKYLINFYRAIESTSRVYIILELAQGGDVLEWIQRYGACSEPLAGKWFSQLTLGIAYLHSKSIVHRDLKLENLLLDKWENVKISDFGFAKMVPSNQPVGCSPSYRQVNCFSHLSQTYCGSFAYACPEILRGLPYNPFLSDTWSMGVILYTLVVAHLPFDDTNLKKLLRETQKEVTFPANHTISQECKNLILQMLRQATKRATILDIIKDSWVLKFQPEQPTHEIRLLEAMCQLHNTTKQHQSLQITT
Sequence of Casein kinase II subunit alpha (Homo sapiens) (P68400 whole entry, looked up): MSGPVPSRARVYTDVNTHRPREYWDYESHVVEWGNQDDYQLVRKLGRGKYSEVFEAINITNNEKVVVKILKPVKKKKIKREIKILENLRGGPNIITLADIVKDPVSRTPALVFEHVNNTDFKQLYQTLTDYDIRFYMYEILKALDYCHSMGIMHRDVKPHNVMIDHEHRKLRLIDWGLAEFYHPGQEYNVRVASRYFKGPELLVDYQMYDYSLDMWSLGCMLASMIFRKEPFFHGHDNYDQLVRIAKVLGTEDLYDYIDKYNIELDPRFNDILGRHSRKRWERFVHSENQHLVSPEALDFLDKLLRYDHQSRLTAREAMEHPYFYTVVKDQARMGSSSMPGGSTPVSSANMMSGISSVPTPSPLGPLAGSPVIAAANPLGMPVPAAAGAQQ
Sequence of Serine/threonine-protein kinase/endoribonuclease IRE1 (Homo sapiens) (O75460 19-977 limits assumed): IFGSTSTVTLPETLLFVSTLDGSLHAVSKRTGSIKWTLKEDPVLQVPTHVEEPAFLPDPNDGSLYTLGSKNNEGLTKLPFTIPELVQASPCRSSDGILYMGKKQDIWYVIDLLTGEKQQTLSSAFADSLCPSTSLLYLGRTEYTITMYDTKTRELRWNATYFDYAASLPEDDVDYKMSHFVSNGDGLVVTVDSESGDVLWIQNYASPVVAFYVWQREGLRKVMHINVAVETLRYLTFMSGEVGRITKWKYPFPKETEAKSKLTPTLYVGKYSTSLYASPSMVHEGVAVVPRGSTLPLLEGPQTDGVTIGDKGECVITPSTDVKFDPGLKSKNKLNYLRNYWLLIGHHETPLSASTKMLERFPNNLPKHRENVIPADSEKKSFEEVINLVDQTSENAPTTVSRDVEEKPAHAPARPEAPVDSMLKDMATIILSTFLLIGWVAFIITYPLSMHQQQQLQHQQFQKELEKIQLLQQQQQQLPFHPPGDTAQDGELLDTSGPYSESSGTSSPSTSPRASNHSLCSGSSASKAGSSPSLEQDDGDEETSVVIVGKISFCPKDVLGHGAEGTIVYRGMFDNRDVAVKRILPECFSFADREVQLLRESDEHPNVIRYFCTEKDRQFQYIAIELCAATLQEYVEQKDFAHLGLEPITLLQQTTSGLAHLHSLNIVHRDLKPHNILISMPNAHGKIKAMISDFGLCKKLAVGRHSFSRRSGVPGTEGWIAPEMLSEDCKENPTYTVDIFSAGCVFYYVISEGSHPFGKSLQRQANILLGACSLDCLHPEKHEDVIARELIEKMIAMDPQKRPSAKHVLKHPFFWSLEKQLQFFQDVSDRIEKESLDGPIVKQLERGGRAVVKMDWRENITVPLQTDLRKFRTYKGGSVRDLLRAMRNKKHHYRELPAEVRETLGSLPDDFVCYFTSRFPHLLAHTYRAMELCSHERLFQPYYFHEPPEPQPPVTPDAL
Sequence of TRAF2 and NCK-interacting protein kinase (Homo sapiens) (Q9UKE5 whole entry, looked up): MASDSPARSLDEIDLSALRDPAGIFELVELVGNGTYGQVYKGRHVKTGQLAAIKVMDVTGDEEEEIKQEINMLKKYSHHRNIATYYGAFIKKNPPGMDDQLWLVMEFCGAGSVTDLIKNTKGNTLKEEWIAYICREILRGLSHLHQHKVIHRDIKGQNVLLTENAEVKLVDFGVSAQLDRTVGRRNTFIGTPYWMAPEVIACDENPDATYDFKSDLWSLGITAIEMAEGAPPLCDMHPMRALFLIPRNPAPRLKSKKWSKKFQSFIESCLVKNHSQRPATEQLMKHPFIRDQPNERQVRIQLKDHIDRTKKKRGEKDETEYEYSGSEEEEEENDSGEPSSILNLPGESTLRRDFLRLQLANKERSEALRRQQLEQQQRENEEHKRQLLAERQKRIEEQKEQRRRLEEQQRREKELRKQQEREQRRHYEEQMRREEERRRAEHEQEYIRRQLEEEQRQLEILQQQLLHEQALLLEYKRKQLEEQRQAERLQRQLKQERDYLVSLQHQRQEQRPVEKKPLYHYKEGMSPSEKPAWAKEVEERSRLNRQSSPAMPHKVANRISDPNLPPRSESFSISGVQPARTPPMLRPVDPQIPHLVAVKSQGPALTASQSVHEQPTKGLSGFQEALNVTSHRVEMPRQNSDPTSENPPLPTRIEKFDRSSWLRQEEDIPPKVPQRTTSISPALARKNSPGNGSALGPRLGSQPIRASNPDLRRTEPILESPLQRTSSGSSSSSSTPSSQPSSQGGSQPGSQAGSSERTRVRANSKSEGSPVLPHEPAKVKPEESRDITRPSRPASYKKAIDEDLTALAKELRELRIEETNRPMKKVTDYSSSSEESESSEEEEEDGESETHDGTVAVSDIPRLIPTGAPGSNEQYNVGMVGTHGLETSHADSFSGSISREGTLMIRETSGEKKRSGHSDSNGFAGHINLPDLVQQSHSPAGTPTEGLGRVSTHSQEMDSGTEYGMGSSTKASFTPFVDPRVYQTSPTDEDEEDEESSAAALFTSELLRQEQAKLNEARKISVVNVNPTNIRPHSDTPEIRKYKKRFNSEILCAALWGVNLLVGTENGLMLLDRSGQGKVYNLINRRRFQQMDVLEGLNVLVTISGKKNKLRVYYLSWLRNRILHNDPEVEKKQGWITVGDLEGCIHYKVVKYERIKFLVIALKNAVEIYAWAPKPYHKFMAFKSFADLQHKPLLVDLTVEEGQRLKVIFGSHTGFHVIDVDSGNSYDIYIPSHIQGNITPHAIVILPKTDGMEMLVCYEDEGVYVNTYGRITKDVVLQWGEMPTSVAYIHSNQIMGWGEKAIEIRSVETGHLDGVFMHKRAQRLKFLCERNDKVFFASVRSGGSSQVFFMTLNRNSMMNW
Sequence of Fibroblast growth factor receptor 1 (Homo sapiens) (P11362 22-822 limits assumed): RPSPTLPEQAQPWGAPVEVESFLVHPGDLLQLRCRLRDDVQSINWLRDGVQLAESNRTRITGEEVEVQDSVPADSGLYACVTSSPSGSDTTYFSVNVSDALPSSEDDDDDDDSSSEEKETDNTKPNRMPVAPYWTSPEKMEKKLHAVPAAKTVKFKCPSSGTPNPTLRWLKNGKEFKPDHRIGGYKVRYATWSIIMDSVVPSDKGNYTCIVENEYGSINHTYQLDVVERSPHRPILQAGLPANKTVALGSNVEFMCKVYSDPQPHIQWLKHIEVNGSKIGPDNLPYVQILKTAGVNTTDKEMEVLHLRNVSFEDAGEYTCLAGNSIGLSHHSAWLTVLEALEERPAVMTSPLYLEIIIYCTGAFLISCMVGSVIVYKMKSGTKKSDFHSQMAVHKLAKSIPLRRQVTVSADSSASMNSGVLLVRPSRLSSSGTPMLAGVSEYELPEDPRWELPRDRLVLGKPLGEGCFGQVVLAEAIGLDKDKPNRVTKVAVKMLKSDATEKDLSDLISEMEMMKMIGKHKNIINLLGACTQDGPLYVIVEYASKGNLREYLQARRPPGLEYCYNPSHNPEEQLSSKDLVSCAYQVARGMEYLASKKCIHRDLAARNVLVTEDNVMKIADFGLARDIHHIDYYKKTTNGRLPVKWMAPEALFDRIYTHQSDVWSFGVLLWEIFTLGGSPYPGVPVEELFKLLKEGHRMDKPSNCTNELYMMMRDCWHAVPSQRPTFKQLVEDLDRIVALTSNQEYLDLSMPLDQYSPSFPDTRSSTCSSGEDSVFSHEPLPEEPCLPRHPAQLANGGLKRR
Sequence of Phosphatidylinositol 4-phosphate 5-kinase type-1 alpha (Homo sapiens) (Q99755 whole entry): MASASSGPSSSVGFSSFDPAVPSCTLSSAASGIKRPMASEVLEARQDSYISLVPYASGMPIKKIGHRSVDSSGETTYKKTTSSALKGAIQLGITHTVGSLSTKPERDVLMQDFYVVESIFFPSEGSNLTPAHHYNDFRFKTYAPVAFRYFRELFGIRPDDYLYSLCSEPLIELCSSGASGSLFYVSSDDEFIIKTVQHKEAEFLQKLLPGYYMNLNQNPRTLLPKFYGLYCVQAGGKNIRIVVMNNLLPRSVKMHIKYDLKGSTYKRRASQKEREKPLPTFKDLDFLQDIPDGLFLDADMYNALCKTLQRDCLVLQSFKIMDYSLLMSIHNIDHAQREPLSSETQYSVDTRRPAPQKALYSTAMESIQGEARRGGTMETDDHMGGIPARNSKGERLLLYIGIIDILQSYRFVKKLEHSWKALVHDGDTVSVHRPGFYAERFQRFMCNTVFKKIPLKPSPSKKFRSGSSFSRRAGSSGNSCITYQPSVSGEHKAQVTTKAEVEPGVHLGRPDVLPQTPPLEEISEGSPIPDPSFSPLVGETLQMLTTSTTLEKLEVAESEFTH

CN1CCN(c2cnc3c(C4CCN(C(=O)c5ccc(OC(F)(F)F)cc5N)CC4)ncnc3c2)CC1 [BAY-885]
inactive: [1] 93% | [2] 94% | [3] 96% | [4] 92% | [5] 113% | [6] 92% | [7] 101% | [8] 110% | [9] 93% | [10] 92% | [11] 89% | [12] 115% | [13] 98%

From ChEMBL document CHEMBL4507268 (2021)
